Patent publication US20110301142A1, “ANTAGONISTS OF LYSOPHOSPHATIDIC ACID RECEPTORS” (priority 2008, published 2011)

Biological target: T1, human LPA1 (Homo sapiens, UniProt Q92633)
T1 construct: the full-length cDNA for human LPA1 was obtained by PCR of the reverse transcription reaction; expressed in transfected cells
Test: LPA1 calcium flux assay (HLPA1 Ca Flux)
Type: cell-based
Conditions: Human LPA1 expressing CHO cells, stimulated with 10 nM LPA
Experimental: A 1.1 kb cDNA encoding the human LPA1 receptor was cloned from human lung. Human lung RNA (Clontech Laboratories, Inc. USA) was reverse transcribed using the RETROscript kit (Ambion, Inc.) and the full-length cDNA for human LPA1 was obtained by PCR of the reverse transcription reaction. The nucleotide sequence of the cloned human LPA1 was determined by sequencing and confirmed to be identical to the published human LPA1 sequence (An et al. Biochem. Biophys. Res. Commun. 231:619 (1997). The cDNA was cloned into the pcDNAS/FRT expression plasmid and transfected in CHO cells using lipofectamine 2000 (Invitrogen Corp., USA). Clones stably expressing human LPA1 were selected using hygromycin and identified as cells that show Ca-influx in response to LPA.
Human LPA1 or LPA3 expressing CHO cells are seeded at 20,000-45,000 cells per well in a 96-well poly-D-lysine coated plate one or two days before the assay. Prior to the assay, the cells are washed once with PBS and then cultured in serum-free media overnight. On the day of the assay, a calcium indicator dye (Calcium 4, Molecular Devices) in assay buffer (HBSS with Ca^2+ and Mg^2+ and containing 20 mM Hepes and 0.3% fatty-acid free human serum albumin) is added to each well and incubation continued for 1 hour at 37° C. 10 μl of test compounds in 2.5% DMSO are added to the cells and incubation continued at room temperature for 30 minutes. Cells are the stimulated by the addition of 10 nM LPA and intracellular Ca^2+ measured using the Flexstation 3 (Molecular Devices). IC50s are determined using Graphpad prism analysis of drug titration curves.

T1 sequence (Q92633 whole entry): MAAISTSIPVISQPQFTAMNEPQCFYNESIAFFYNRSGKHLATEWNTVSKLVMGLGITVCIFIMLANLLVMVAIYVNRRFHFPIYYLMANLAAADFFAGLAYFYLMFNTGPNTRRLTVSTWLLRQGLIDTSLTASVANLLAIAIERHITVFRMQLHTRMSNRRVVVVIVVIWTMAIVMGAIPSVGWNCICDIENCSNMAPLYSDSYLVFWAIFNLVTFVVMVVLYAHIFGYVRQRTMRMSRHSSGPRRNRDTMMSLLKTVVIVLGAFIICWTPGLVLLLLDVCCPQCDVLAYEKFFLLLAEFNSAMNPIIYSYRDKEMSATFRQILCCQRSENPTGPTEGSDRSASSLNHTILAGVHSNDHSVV

Structure (SMILES)	IC50 [µM]
Cc1noc(-c2ccc(-c3ccc(CC(=O)O)cc3)cn2)c1NC(=O)OC(C)c1ccccc1Cl (stereo not drawn) [Compound 1-73]	< 0.3
Cc1noc(-c2ccc(-c3cccc(C(=O)O)c3)cc2)c1NC(=O)O[C@H](C)c1ccccn1 [Compound 1-11]	1 to 50
Cc1noc(-c2cccc(-c3ccccc3C(=O)O)c2)c1NC(=O)OC(C)c1ccccc1Cl (stereo not drawn) [Compound 1-32, 3′-{4-[1-(2-Chloro-phenyl)-ethoxycarbonylamino]-3-methyl-isoxazol-5-yl}-biphenyl-2-carboxylic acid]	0.3 to 1
Cc1noc(-c2ccc(-c3ccc(CC(=N)N)cc3)cc2)c1NC(=O)O[C@H](C)c1ccccc1F [Compound 2-6, [5-(4′-Carbamimidoylmethyl-biphenyl-4-yl)-3-methyl-isoxazol-4-yl]-carbamic acid (R)-1-(2-fluoro-phenyl)-ethyl ester]	1 to 50
Cc1noc(-c2ccc(-c3nnn(CC(=O)O)n3)cc2)c1NC(=O)O[C@H](C)c1ccccc1F [Compound 1-135, [5-(4-{4-[(R)-1-(2-Fluoro-phenyl)-ethoxycarbonylamino]-3-methyl-isoxazol-5-yl}-phenyl)-tetrazol-2-yl]-acetic acid]	1 to 50
COc1ccc(C(C)OC(=O)Nc2c(C)noc2-c2ccc(-c3ccc(CC(=O)O)cc3)cc2)c(F)c1 (stereo not drawn) [Compound 1-118, (4′-{4-[1-(2-Fluoro-4-methoxy-phenyl)-ethoxycarbonylamino]-3-methyl-isoxazol-5-yl}-biphenyl-4-yl)-acetic acid]	0.3 to 1
Cc1cc(-c2onc(C)c2NC(=O)O[C@H](C)c2ccccc2F)ccc1-c1ccc(C(C)C(=O)O)cc1 (stereo partly drawn) [Compound 1-110, 2-(4′-{4-[(R)-1-(2-Fluoro-phenyl)-ethoxycarbonylamino]-3-methyl-isoxazol-5-yl}-2′-methyl-biphenyl-4-yl)-propionic acid]	< 0.3
Cc1noc(-c2ccc(-c3ccc(CC(=O)O)cc3)cc2)c1NC(=O)OC(C)Cc1ccccc1 (stereo not drawn) [Compound 1-29, {4′-[3-Methyl-4-(1-methyl-2-phenyl-ethoxycarbonylamino)-isoxazol-5-yl]-biphenyl-4-yl}-acetic acid]	0.3 to 1
Cc1noc(-c2cccc(-c3cncc(CC(=O)O)c3)c2)c1NC(=O)OC(C)c1ccccc1Cl (stereo not drawn) [Compound 1-41, [5-(3-{4-[1-(2-Chloro-phenyl)-ethoxycarbonylamino]-3-methyl-isoxazol-5-yl}-phenyl)-pyridin-3-yl]acetic acid]	1 to 50
Cc1noc(-c2ccc3cc(-c4ccc(CC(=O)O)cc4)ccc3c2)c1NC(=O)OC(C)c1ccccc1Cl (stereo not drawn) [Compound 3-1]	0.3 to 1
Cc1noc(-c2cccc(-c3cc(C(=O)O)ccn3)c2)c1NC(=O)OC(C)c1ccccc1Cl (stereo not drawn) [Compound 1-35, 2-(3-{4-[1-(2-Chloro-phenyl)-ethoxycarbonylamino]-3-methyl-isoxazol-5-yl}-phenyl)-isonicotinic acid]	0.3 to 1
Cc1noc(-c2ccc(-c3ccc(CC(=O)O)cc3)cc2)c1NC(=O)OCc1ccccc1Cl [Compound 1-113, {4′-[4-(2-Chloro-benzyloxycarbonylamino)-3-methyl-isoxazol-5-yl]-biphenyl-4-yl}-acetic acid]	0.3 to 1
Cc1noc(-c2cccc(-c3ccc4c(ccn4CC(=O)O)c3)c2)c1NC(=O)OC(C)c1ccccc1Cl (stereo not drawn) [Compound 1-40, [5-(3-{4-[1-(2-Chloro-phenyl)-ethoxycarbonylamino]-3-methyl-isoxazol-5-yl}-phenyl)-indol-1-yl]-acetic acid]	> 50
Cc1noc(-c2cccc(-c3ccc(C(=O)O)nc3)c2)c1NC(=O)OC(C)c1ccccc1Cl (stereo not drawn) [Compound 1-34, 5-(3-{4-[1-(2-Chloro-phenyl)-ethoxycarbonylamino]-3-methyl-isoxazol-5-yl}-phenyl)-pyridine-2-carboxylic acid]	0.3 to 1
CCOC(=O)Cc1ccc(Sc2ccc(-c3onc(C)c3NC(=O)O[C@H](C)c3ccccc3F)cc2)cc1 [Compound 1-105, [4-(4-{4-[(R)-1-(2-Fluoro-phenyl)-ethoxycarbonylamino]-3-methyl-isoxazol-5-yl}-phenylsulfanyl)-phenyl]-acetic acid ethyl ester]	1 to 50
